Laboratory results published in patent US4543256A, “(-)-10,1L Methylenedioxy-N-N-propylnoraporphine and methods employing it for inhibiting the effects of epileptic seizures and for prevention and treatment of duodenal ulcers” (Northeastern University, priority 1982, dated 1985).
Counter-ions that a name gives are not always drawn. Like-named read-outs stand apart in the source and are kept apart here.

What was measured:
[1] = system: duodenal ulcers; test: Cysteamine-induced duodenal ulcer in the rat; conditions: for Duodenal Ulcer Intensity (Scale: 0-3): control 1.8; for Duodenal Ulcer Incidence (Positive/Total): control 10/12
[2] = system: rats; test: Locomotor (general motor) activity, electronic activity monitor; format: in vivo, rat (male Sprague-Dawley)
Procedure: (§1) Male Sprague-Dawley (Charles River Labs.) rats (initially 175-200 g) were housed four per cage, with free access to food and water, under controlled lighting (on 7:00 a.m. to 7:00 p.m.), constant temperature 21°-23° C. and controlled humidity (40-50%). Aporphines were administered, as described below, freshly dissolved in 1 mM citric acid mixed with 0.9% (w/v) saline (1:4, vols.); this solvent was also used as a vehicle ("placebo") control. Haloperidol was given in the same medium; 2-diethyl aminoethyl-2,2 diphenylvalerate HCl (SKF-525A) was given in saline.
Locomotor activity was evaluated by use of a printing electronic activity monitor (EAM, Stoelting Co., Chicago, IL) within a sound-attenuated chamber, typically for 60 min., as described previously (Stewart, Campbell, Sperk and Baldessarini, 1979, Psychopharmacology 60 281-289; Campbell and Baldessarini, 1981a, Psychopharmacology 73:219-222.
(§2) In all experiments except those which evaluated the time-course of drug effects, rats were given an injection of vehicle and then allowed to rest for 15 min. to adapt to nonspecific arousal effects, prior to a second injection of test agent (or placebo) and immediate behavioral testing. Behavioral data were evaluated by Student's t-test and are always expressed as mean ±SEM.
Data are mean values ±SEM (N=4 to 8 rats per condition). Animals were pretreated with SKF-525A (40 mg/kg, i.p.) or its vehicle 30 min before MDO-NPA (in the doses noted, from 0 to 3 mg/kg, i.p.). Activity was then monitored electronically for an hour after the low doses of MDO-NPA (data in counts/hour), or rated for stereotypy every 10 min for an hour after higher doses. N.D. indicates "not determined." (*) Indicates a significant difference by t-test between control and oxidase inhibitor-pretreated rats (p<0.01).
Data are mean values ±SEM (N=3 to 6 rats per condition) for effects of seven aporphine compounds (R=substituents, keyed to the structure above). Full chemical names for all compounds are provided in Methods. Ratings are expressed as percent of the maximum possible score (100%)=18.0) of stereotypy (Placebo-injected controls yielded scores of 4.4±2.5%); and as the percent of control locomotor activity (100%=430±86 counts/hr). Data are provided for a dose of 10 mg/kg (i.p.), although doses of 1 and 5 mg/kg were also tested.

[3] = system: rats; test: Stereotyped behavior of rats (rating scale; score, onset and duration); format: in vivo, rat (male Sprague-Dawley); conditions: for Stereotypy (percent of the maximum possible score): 100%=18.0, placebo 4.4±2.5%, N=3 to 6; for Stereotypy Score: rated one hour, maximum 18, N=6, mean ±SEM; for Duration of Effect (stereotypy): complete when scores ≤3; for stereotypy scores: NPA 3 mg/kg i.p., N=6
Procedure: as §1
Stereotyped behavior was evaluated by a trained observer according to a rating scale method reported previously (Campbell and Baldessarini, 1981a). Briefly, the ratings were as follows: 0, no stereotypy, normal locomotion; 1, discontinuous sniffing, reduced locomotion; 2, continuous sniffing, only periodic exploration; 3, continuous sniffing, mouth movements, infrequent, exploratory activity, Ratings were made each 10 min. by observation for 30 sec, typically for 60 min. (maximum score=18.0/hour).
as §2
Data are mean values ±SEM for N=6 rats per group given doses of each aporphine (1mg/kg/, or approximately 3 umole/kg) by orogastric intubation (P.O.), or subcutaneous (S.C.) or intraperitoneal (I.P.) injection. Stereotypy was rated for one hour as described in Methods and duration is defined as complete when scores diminished to ≤3 (out of a maximum possible score of 18).
Data are mean values ±SEM (N=4 to 8 rats per condition). […] N.D. indicates "not determined." (*) Indicates a significant difference by t-test between control and oxidase inhibitor-pretreated rats (p<0.01).
Stereotypy was rated for 60 min as described in Methods. Data are means SEM (stereotypy scores, when 18=maximum in 1 hour) for N=6 rats per group; (*) indicates p<0.0001 by t test.
Data are mean values ±SEM (N=3 to 6 rats per condition) for effects of seven aporphine compounds (R=substituents, keyed to the structure above). Full chemical names for all compounds are provided in Methods. […] Data are provided for a dose of 10 mg/kg (i.p.), although doses of 1 and 5 mg/kg were also tested.

[4] = in vivo, cited from earlier work
[5] = system: Adenylate cyclase; test: Adenylate cyclase stimulation (cAMP) in rat striatal homogenates; format: biochemical; conditions: 50 μM; control (no addition) 2.38 ± 0.14; p < 0.01; N=4
From the text: of cAMP in rat striatal homogenates; inhibition of binding of

[6] = system: gastric acid output; conditions: rats given cysteamine or propionitrile; previous studies; cited from earlier work
[7] = 10 mg/kg i.p.; 100%=430±86 counts/hr; N=3 to 6
[8] = 50 μg/100g s.c. once daily seven days
[9] = 100 μg/100g s.c. once daily seven days
[10] = SKF-525A 40 mg/kg i.p. alone (MDO-NPA dose 0)

**Q.** For `CC(C)(C)C1(O)CCN2CC3c4ccccc4CCc4cccc(c43)C2C1` (single isomer, unassigned; (+)) [(+)-butaclamol, reference compound], which “effect on the beneficial effect of NPA and MDO-NPA” value ([1]; combined with NPA or MDO-NPA) is on record?
**A.** reversed the beneficial effect of NPA and MDO-NPA

**Q.** And the “effect on cysteamine-induced duodenal ulcers” value ([1]; rats given cysteamine)?
**A.** aggravated the experimental duodenal ulcers

**Q.** For `CCCCCC1(C)Oc2ccc3c(c2O1)-c1cccc2c1C(C3)N(CCC)CC2.Cl` (single isomer, unassigned; (-)) [Methyl-pentyl-MDO--NPA, (-) 10,11-Heptylidene-2-dioxy-N-n-propylnoraporphine-HCl], which “Locomotion (percent of control locomotor activity)” value [2, 7] is on record?
**A.** 86.1 ± 22.3%

**Q.** What about the “Stereotypy (percent of the maximum possible score)” value ([3]; 10 mg/kg i.p.) of the same compound?
**A.** 11.1 ± 5.7%

**Q.** Which “Locomotion (percent of control locomotor activity)” value [2, 7] does the source give for `CCCN1CCc2cccc3c2[C@H]1Cc1c([N+](=O)[O-])cc2c(c1-3)OCO2` [8-Nitro-MDO--NPA] here?
**A.** 74.4 ± 9.8%

**Q.** What about the “Stereotypy (percent of the maximum possible score)” value ([3]; 10 mg/kg i.p.) of the same compound?
**A.** 4.4 ± 2.5%

**Q.** What does the source list for `CN1CCc2cccc3c2[C@H]1Cc1ccc(O)c(O)c1-3` [APO, apomorphine, reference compound]?
**A.** duration of action [4]: short duration of action; minimal effective dose ([2]; Rattus norvegicus, ip; read-out: dose producing increases in general motor activity): > 2 µmol/kg; motor activity at lower doses (below 2 μmoles/kg) ([2]; i.p.): no significant effect; Stereotypy Score ([3]; 1 mg/kg I.P.): 16.5 ± 2.4; Duration of Effect (stereotypy) ([3]; 1 mg/kg I.P.): 72 ± 12 min; Stereotypy Score ([3]; 1 mg/kg P.O.): 0; Duration of Effect (stereotypy) ([3]; 1 mg/kg P.O.): 0 min; Stereotypy Score ([3]; 1 mg/kg S.C.): 17.5 ± 0.4; Duration of Effect (stereotypy) ([3]; 1 mg/kg S.C.): 70 ± 5 min; dependence of duration of action on dose ([3]; i.p.): much less tendency for duration to increase with dose

**Q.** Which excitatory effects ([2]; 10 mg/kg i.p.) does the source give for `CN1CCc2cccc3c2[C@H]1Cc1ccc2c(c1-3)OCO2` [MDO-APO] here?
**A.** relatively weak and inconsistent excitatory effects

**Q.** And the “inhibition of locomotor activity” value ([2]; 10 mg/kg i.p.)?
**A.** significant effect (p 0.01 by t-test) to inhibit locomotor activity

**Q.** What about the “Stereotypy” value ([3]; 10 mg/kg i.p.) of the same compound?
**A.** weak and inconsistent stereotypy (not significant statistically)

**Q.** What about the “behavioral effects after oral administration” value ([3]; 1 to 5 mg/kg oral) of the same compound?
**A.** no significant behavioral effects

**Q.** Which “Duodenal Ulcer Intensity (Scale: 0-3)” value [1, 8] does the source give for `CCCN1CCc2cccc3c2[C@H]1Cc1ccc(O)c(O)c1-3` [NPA, N-n-Propylnorapomorphine, reference compound] here?
**A.** 1.1

**Q.** And the “Duodenal Ulcer Incidence (Positive/Total)” value [1, 8]?
**A.** 2/9

**Q.** What about the “Duodenal Ulcer Intensity (Scale: 0-3)” value [1, 9] of the same compound?
**A.** 0.9

**Q.** And the “Duodenal Ulcer Incidence (Positive/Total)” value [1, 9]?
**A.** 6/9

**Q.** And the “effect of a single high dose on duodenal ulcers” value ([1]; single high dose)?
**A.** active

**Q.** What about the oral bioavailability ([4]; po) of the same compound?
**A.** poor oral bioavailability

**Q.** What about the duration of action [4] of the same compound?
**A.** short duration of action

**Q.** And the minimal effective dose ([2]; Rattus norvegicus, ip, read-out: dose producing increases in general motor activity)?
**A.** > 2 µmol/kg

**Q.** And the “motor activity at lower doses (below 2 μmoles/kg)” value ([2]; i.p.)?
**A.** no significant effect

**Q.** What about the “Adenylate cyclase stimulation (cAMP)” value [5] of the same compound?
**A.** 5.67 ± 0.28 pmol/assay

**Q.** And the “Stereotypy Score” value ([3]; 1 mg/kg I.P.)?
**A.** 17.5 ± 1.0

**Q.** And the “Duration of Effect (stereotypy)” value ([3]; 1 mg/kg I.P.)?
**A.** 70 ± 10 min

**Q.** What about the “Stereotypy Score” value ([3]; 1 mg/kg P.O.) of the same compound?
**A.** 0

**Q.** And the “Duration of Effect (stereotypy)” value ([3]; 1 mg/kg P.O.)?
**A.** 0 min

**Q.** What about the “Stereotypy Score” value ([3]; 1 mg/kg S.C.) of the same compound?
**A.** 17.5 ± 0.8

**Q.** What about the “Duration of Effect (stereotypy)” value ([3]; 1 mg/kg S.C.) of the same compound?
**A.** 72 ± 6 min

**Q.** And the stereotypy scores ([3]; controls (vehicle pretreated))?
**A.** 17.4±0.2

**Q.** And the stereotypy scores ([3]; oxidase-inhibited (SKF-525A 40 mg/kg i.p.))?
**A.** 17.0±0.3

**Q.** And the “dependence of duration of action on dose” value ([3]; i.p.)?
**A.** much less tendency for duration to increase with dose

**Q.** What about the “duration of stereotyped behavioral effects vs other agents” value ([3]; i.p., for MDO-NPA at doses above 1 μmole/kg) of the same compound?
**A.** about equal to, or slightly greater than that of APO

**Q.** For `CCCC(C(=O)OCCN(CC)CC)(c1ccccc1)c1ccccc1` [SKF-525A, 2-diethyl aminoethyl-2,2 diphenylvalerate HCl, reference compound], which Activity [2, 10] is on record?
**A.** 422 ± 28 counts/hour

**Q.** And the Stereotypy [3, 10]?
**A.** 0

**Q.** For `CC(C)C[C@H]1C(=O)N2CCC[C@H]2[C@]2(O)O[C@](NC(=O)[C@@H]3C=C4c5cccc6[nH]c(Br)c(c56)C[C@H]4N(C)C3)(C(C)C)C(=O)N12` [bromocriptine], which “effect on output of gastric acid” value [6] is on record?
**A.** diminished the output of gastric acid

**Q.** For `CN1C[C@H](CC#N)C[C@@H]2c3cccc4[nH]c(Cl)c(c34)C[C@H]21` [lergotrile], which “effect on output of gastric acid” value [6] is on record?
**A.** diminished the output of gastric acid

**Q.** Which “Stereotypy” value ([3]; 10 mg/kg i.p.) does the source give for “(-) 10, 11-Butylidene-2-dioxy-N-n-propylnoraporphine. HCl [Methyl-ethyl MDO--NPA]” here?
**A.** weak stereotypic activity

**Q.** And the “duration of stereotypic activity” value ([3]; 10 mg/kg i.p.)?
**A.** about 60 min

**Q.** And the “onset of stereotypic activity delayed” value ([3]; 10 mg/kg i.p.)?
**A.** about 30 min

**Q.** What about the “Stereotypy (percent of the maximum possible score)” value ([3]; 10 mg/kg i.p.) of the same compound?
**A.** 31.5 ± 1.9%
